# Literature values, collected in US20140140997A1, “Methods of Treating Retroviral Infections in Felines” (CytoDyn Inc., priority 2011, published 2014).
# Tests used:
# LFA-1 = conditions: Wang et al. 2009; Almog 2003
# CD11a binding to ICAM-1 = conditions: Weitz-Schmidt et al. 2004; Welzenbach et al. 2002
SMILES,inhibition of LFA-1 activation (LFA-1),prevention of CD11a binding to ICAM-1 (CD11a binding to ICAM-1)
"CC[C@H](C)C(=O)O[C@H]1C[C@@H](C)C=C2C=C[C@H](C)[C@H](CC[C@@H]3C[C@@H](O)CC(=O)O3)[C@H]21 [Lovastatin, (1S,3R,7S,8S,8aR)-8-{2-[(2R,4R)-4-hydroxy-6-oxooxan-2-yl]ethyl}-3,7-dimethyl-1,2,3,7,8,8a-hexahydronaphthalen-1-yl (2S)-2-methylbutanoate]",inhibit LFA-1 activation,–
CC[C@H](C)C(=O)O[C@H]1C[C@@H](C)C=C2C=C[C@H](C)[C@H](CC[C@@H]3C[C@H](CC(=O)NC)N(Cc4ccc(O)c(OC)c4)C(=O)O3)[C@H]21 [LFA878],–,preventing the ability of CD11a to bind to ICAM-1
O=C(NCc1cccc(O)c1)c1cc(Cl)c(C(=O)N[C@@H](CNC(=O)c2cc(O)cc(O)c2)C(=O)O)c(Cl)c1 [XVA143],–,preventing the ability of CD11a to bind to ICAM-1
"CCC(C)(C)C(=O)O[C@H]1C[C@@H](C)C=C2C=C[C@H](C)[C@H](CC[C@@H]3C[C@@H](O)CC(=O)O3)[C@H]21 [simvastatin, (1S,3R,7S,8S,8aR)-8-(2-((2R,4R)-4-hydroxy-6-oxotetrahydro-2H-pyran-2-yl)ethyl)-3,7-dimethyl-1,2,3,7,8,8a-hexahydronaphthalen-1-yl 2,2-dimethylbutanoate]",inhibit LFA-1 activation,–
